These results are taken from patent US8106055B2, “Substituted amide compounds” (Gruenenthal GmbH, priority 2007, dated 2012).

The target of assay [1] is T1, human bradykinin 1 receptor (B1R) (Homo sapiens, UniProt P46663).
T1 construct: expressed in transfected cells; host or cells: CHO K1 cells
T1 sequence (P46663 1-353): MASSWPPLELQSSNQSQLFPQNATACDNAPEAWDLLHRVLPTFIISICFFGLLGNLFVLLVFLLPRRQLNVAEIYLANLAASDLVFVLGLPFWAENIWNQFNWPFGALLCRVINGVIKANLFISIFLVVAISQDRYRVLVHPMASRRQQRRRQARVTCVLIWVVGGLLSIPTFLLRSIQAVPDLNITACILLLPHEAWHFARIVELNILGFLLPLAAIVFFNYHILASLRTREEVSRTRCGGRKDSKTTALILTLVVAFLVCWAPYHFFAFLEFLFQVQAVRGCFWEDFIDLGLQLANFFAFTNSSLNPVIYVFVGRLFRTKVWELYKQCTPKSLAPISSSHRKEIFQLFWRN
Nature of the assay: Functional investigation on the human bradykinin 1 receptor (B1R), Ca2+ FLIPR assay in CHO K1 hB1R cells. The format is cell-based. In short, it runs like this:
(§1)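 Stably transfected CHO K1 cells loaded with Fluo-4; FLIPR Ca2+ fluorescence peak (ex 488/em 540 nm). Compound added first (agonism vs Lys-Des-Arg9-bradykinin ≥50 nM human, Des-Arg9-bradykinin 10 μM rat), then after 10-20 min agonist at EC80; antagonism as % inhibition, IC50 from concentration series, n=2-3, N≥2.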

In assay [2] the target is T2, bradykinin 1 receptor (B1R) of the rat (Rattus norvegicus, UniProt P97583).
T2 construct: expressed in transfected cells; host or cells: CHO K1 cells
T2 sequence (P97583 1-337): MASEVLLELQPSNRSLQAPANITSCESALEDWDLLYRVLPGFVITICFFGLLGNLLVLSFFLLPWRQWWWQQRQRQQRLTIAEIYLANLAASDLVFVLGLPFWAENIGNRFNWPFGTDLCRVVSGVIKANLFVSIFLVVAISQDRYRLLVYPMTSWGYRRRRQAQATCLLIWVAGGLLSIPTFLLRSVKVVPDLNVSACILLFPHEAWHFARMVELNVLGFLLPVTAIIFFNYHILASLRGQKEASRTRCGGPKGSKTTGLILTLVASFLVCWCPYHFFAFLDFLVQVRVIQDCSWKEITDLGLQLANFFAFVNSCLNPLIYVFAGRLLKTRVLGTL
Nature of the assay: Functional investigation on the rat bradykinin 1 receptor (B1R), Ca2+ FLIPR assay in CHO K1 rB1R cells. The format is cell-based. Put shortly:
as §1

The mark [3] stands for this setting: CHO-K1, B1R antagonism human, test substance 10 μM, Ca2+ FLIPR, CHO K1 hB1R cells, read-out: B1R Ant. h [10 μM] % Inhibition.
[4] abbreviates: CHO-K1, B1R antagonism rat, test substance 10 μM, Ca2+ FLIPR, CHO K1 rB1R cells, read-out: B1R Ant. r [10 μM] % Inhibition.

Structures are written as SMILES. Like-named read-outs stand apart in the source and are kept apart here.

Consider `COc1ccc(S(=O)(=O)N2CCCC2COCC(=O)NC2CCC(C(c3ccccc3)N(C)C)CC2)cc1` (stereo not shown) [Example 182, N-(4-((dimethylamino)(phenyl)methyl)cyclohexyl)-2-((1-(4-methoxyphenylsulfonyl)pyrrolidin-2-yl)methoxy)acetamide], for which the inhibition (usually the relative decrease from the control value, in per cent) at 10 µM in assay [1] (setting [3]) stood at 9%; in assay [2] (setting [4]), 25%.

Take `COc1cc(C)c(S(=O)(=O)N(C)CCOCC(=O)NCCC2CCC(C(c3cccc(F)c3)N(C)C)CC2)c(C)c1C` (stereo not shown) [Example 183, N-(2-(4-((dimethylamino)(3-fluorophenyl)methyl)cyclohexyl)ethyl)-2-(2-(4-methoxy-N,2,3,6-tetramethylphenylsulfonamido)ethoxy)acetamide]: the inhibition at 10 µM in assay [1] (setting [3]) was found to be 104%; in assay [2] (setting [4]), 28%.

Regarding `COc1ccc(S(=O)(=O)N2CCC(OCC(=O)NCC3CCC(C(c4cccc(F)c4)N(C)C)CC3)C2)cc1OC` (stereo not shown) [Example 184, 2-(1-(3,4-dimethoxyphenylsulfonyl)pyrrolidin-3-yloxy)-N-((4-((dimethylamino)(3-fluorophenyl)methyl)cyclohexyl)methyl)acetamide], the inhibition at 10 µM in assay [1] (setting [3]) was -29%; in assay [2] (setting [4]), 38%.

For the compound `Cc1ccc(S(=O)(=O)N2CCC(OCC(=O)NCC3CCC(C(c4cccc(F)c4)N(C)C)CC3)C2)cc1` (stereo not shown) [Example 185, N-((4-((dimethylamino)(3-fluorophenyl)methyl)cyclohexyl)methyl)-2-(1-tosylpyrrolidin-3-yloxy)acetamide], the inhibition at 10 µM was determined as 9% in assay [1] (setting [3]) and 28% in assay [2] (setting [4]).

For `CN(C)C(c1cccc(F)c1)C1CCC(CCNC(=O)COCCN(C)S(=O)(=O)c2ccc(Cl)cc2)CC1` (stereo not shown) [Example 186, 2-(2-(4-chloro-N-methylphenylsulfonamido)ethoxy)-N-(2-(4-((dimethylamino)(3-fluorophenyl)methyl)cyclohexyl)ethyl)acetamide], the inhibition at 10 µM in assay [1] (setting [3]) was 23%; in assay [2] (setting [4]), 35%.

As to `CN(C)C(c1cccc(F)c1)C1CCC(CNC(=O)COCCN(C)S(=O)(=O)c2c(Cl)cc(Cl)cc2Cl)CC1` (stereo not shown) [Example 188, N-((4-((dimethylamino)(3-fluorophenyl)methyl)cyclohexyl)methyl)-2-(2-(2,4,6-trichloro-N-methylphenylsulfonamido)ethoxy)acetamide], the inhibition at 10 µM in assay [1] (setting [3]) was 102%; in assay [2] (setting [4]), 13%.

For `COc1cc(C)c(S(=O)(=O)N2CCC(OCC(=O)NC3CCC(C(c4cccc(F)c4)N(C)C)CC3)C2)c(C)c1C` (stereo not shown) [Example 189, N-(4-((dimethylamino)(3-fluorophenyl)methyl)cyclohexyl)-2-(1-(4-methoxy-2,3,6-trimethylphenylsulfonyl)pyrrolidin-3-yloxy)acetamide], the inhibition at 10 µM in assay [1] (setting [3]) amounted to 47%; in assay [2] (setting [4]), 16%.

`COc1ccc(S(=O)(=O)N2Cc3ccccc3CC2COCC(=O)NCCC2CCC(C(c3cccc(F)c3)N(C)C)CC2)cc1` (stereo not shown) [Example 190, N-(2-(4-((dimethylamino) (3-fluorophenyl)methyl)cyclohexyl)ethyl)-2-((2-(4-methoxyphenylsulfonyl)-1,2,3,4-tetrahydroisoquinolin-3-yl)methoxy)acetamide]: the inhibition at 10 µM turned out to be 29% in assay [1] (setting [3]) and 18% in assay [2] (setting [4]).

As to `COc1ccc(S(=O)(=O)N2CCCCC2COCC(=O)NCCC2CCC(C(c3cccc(F)c3)N(C)C)CC2)cc1OC` (stereo not shown) [Example 191, 2-((1-(3,4-dimethoxyphenylsulfonyl)piperidin-2-yl)methoxy)-N-(2-(4-((dimethylamino)(3-fluorophenyl)methyl)cyclohexyl)ethyl)acetamide], the inhibition at 10 µM in assay [1] (setting [3]) is -16%; in assay [2] (setting [4]), -14%.

Regarding `CN(C)C(c1cccc(F)c1)C1CCC(CCNC(=O)COCCN(C)S(=O)(=O)c2cccc(C(F)(F)F)c2)CC1` (stereo not shown) [Example 192, N-(2-(4-((dimethylamino)(3-fluorophenyl)methyl)cyclohexyl)ethyl)-2-(2-(N-methyl-3-(trifluoromethyl)phenylsulfonamido)ethoxy)acetamide], the results for the inhibition at 10 µM in assay [1] (setting [3]) and in assay [2] (setting [4]) were 30% and 10%, respectively.

Turning to `COc1cc(C)c(S(=O)(=O)N(CCOCC(=O)NC2CCC(C(c3ccccc3)N(C)C)CC2)Cc2ccccc2)c(C)c1C` (stereo not shown) [Example 193, 2-(2-(N-benzyl-4-methoxy-2,3,6-trimethylphenylsulfonamido)ethoxy)-N-(4-((dimethylamino) (phenyl)methyl)cyclohexyl)acetamide], the inhibition at 10 µM in assay [1] (setting [3]) worked out at 97%; in assay [2] (setting [4]), 6%.

As to `CN(C)C(c1cccs1)C1CCC(NC(=O)COC2CCN(S(=O)(=O)c3ccccc3)C2)CC1` (stereo not shown) [Example 194, N-(4-((dimethylamino)(thiophen-2-yl)methyl)cyclohexyl)-2-(1-(phenylsulfonyl)pyrrolidin-3-yloxy)acetamide], the values for the inhibition at 10 µM in assay [1] (setting [3]) and in assay [2] (setting [4]) were -17% and 14%, respectively.

Consider `CN(C)C(c1ccccc1)C1CCC(CNC(=O)COC2CCN(S(=O)(=O)c3ccccc3)C2)CC1` (stereo not shown) [Example 195, N-((4-((dimethylamino)(phenyl)methyl)cyclohexyl)methyl)-2-(1-(phenylsulfonyl)pyrrolidin-3-yloxy)acetamide], for which the inhibition at 10 µM in assay [1] (CHO-K1, read-out: B1R Ant. h [10 μM] % Inhibition) is -13%; in assay [2] (CHO-K1, read-out: B1R Ant. r [10 μM] % Inhibition), 24%.

For the compound `CN(C)C(c1cccc(F)c1)C1CCC(NC(=O)COCCN(C)S(=O)(=O)c2ccc(Cl)cc2)CC1` (stereo not shown) [Example 196, 2-(2-(4-chloro-N-methylphenylsulfonamido)ethoxy)-N-(4-((dimethylamino)(3-fluorophenyl)methyl)cyclohexyl)acetamide], the inhibition at 10 µM worked out at 6% in assay [1] (setting [3]) and 27% in assay [2] (setting [4]).

Take `COc1cc(C)c(S(=O)(=O)N(C)CCOCC(=O)NCCC2CCC(C(c3cccc(F)c3)N(C)C)CC2)c(C)c1` (stereo not shown) [Example 197, N-(2-(4-((dimethylamino)(3-fluorophenyl)methyl)cyclohexyl)ethyl)-2-(2-(4-methoxy-N,2,6-trimethylphenylsulfonamido)ethoxy)acetamide]: the values for the inhibition at 10 µM in assay [1] (setting [3]) and in assay [2] (setting [4]) were 104% and 105%, respectively.

On to `COc1cc(C)c(S(=O)(=O)N2CCC(OCC(=O)NCCC3CCC(C(c4cccs4)N(C)C)CC3)C2)c(C)c1` (stereo not shown) [Example 199, N-(2-(4-((dimethylamino)(thiophen-2-yl)methyl)cyclohexyl)ethyl)-2-(1-(4-methoxy-2,6-dimethylphenylsulfonyl)pyrrolidin-3-yloxy)acetamide], for which the inhibition at 10 µM in assay [1] (setting [3]) was 104%; in assay [2] (setting [4]), 100%.

As for `COc1cc(C)c(S(=O)(=O)N2CCN(CCOCC(=O)NCCC3CCC(C(c4cccc(F)c4)N(C)C)CC3)CC2)c(C)c1C` (stereo not shown) [Example 200, N-(2-(4-((dimethylamino)(3-fluorophenyl)methyl)cyclohexyl)ethyl)-2-(2-(4-(4-methoxy-2,3,6-trimethylphenylsulfonyl)piperazin-1-yl)ethoxy)acetamide], the inhibition at 10 µM is 73% in assay [1] (setting [3]) and -3% in assay [2] (setting [4]).
